Source: US20250136574A1, “SELECTIVE AGENTS TARGETING MYCOBACTERIUM TUBERCULOSIS” (priority 2022, published 2025)
Read-outs that look alike come from different tables or passages of the source.

Tests used:
Plasma stability, human = settings: n = 1
in vitro = settings: human, plasma
[1] = Liver microsomal stability, mouse; settings: mouse liver microsomes, n = 1
[2] = microsomes
[3] = microsomes; remark: listed apart in the source
Plasma stability, mouse = settings: n = 1
PBS solubility = settings: highest concentration with no detectable precipitate; phosphate-buffered saline
[4] = Liver microsomal stability, human; settings: human liver microsomes, n = 1
human plasma protein = assay: Human plasma protein binding; settings: human plasma protein binding
[5] = Human plasma protein binding; settings: human, plasma

## CCCCCCC#Cc1cncc(-c2nnc(SCc3ccc([N+](=O)[O-])o3)n2C2CC2)c1 [drawing 141]
Plasma stability, human
  plasma stability t1/2 (min), human: 259 min
In vitro
  fraction unbound: < 0.001
[1]
  liver microsomal stability t1/2 (min), mouse: 2.5 min
[2]
  liver microsomal stability CLint (μL/min/mg), human: 470 µL/min/mg
[3]
  liver microsomal stability CLint (μL/min/mg), mouse: 546 µL/min/mg
Plasma stability, mouse
  plasma stability t1/2 (min), mouse: 238 min
PBS solubility
  PBS solubility: 3.1 µM
[4]
  liver microsomal stability t1/2 (min), human: 1.9 min

## CC(=O)CC(c1ccccc1)c1c(O)c2ccccc2oc1=O (stereo not shown) [warfarin]
Human plasma protein
  plasma protein binding: >99.9%

## CCCCCCC#Cc1cncc(-c2nnc(SCc3cc([N+](=O)[O-])cc([N+](=O)[O-])c3)n2C2CC2)c1.Cl
Plasma stability, human
  plasma stability t1/2 (min), human: >480; >480 min
[1]
  liver microsomal stability t1/2 (min), mouse: 5.9 min
Plasma stability, mouse
  plasma stability t1/2 (min), mouse: >480; >480 min
PBS solubility
  PBS solubility: 3.1 µM
[4]
  liver microsomal stability t1/2 (min), human: 3.0 min

## CCCCCCC#Cc1cncc(-c2nnc(SCc3cc([N+](=O)[O-])cc([N+](=O)[O-])c3)n2C)c1 [drawing 140]
Plasma stability, human
  plasma stability t1/2 (min), human: >480; >480 min
[1]
  liver microsomal stability CLint (μL/min/mg), mouse: 287 µL/min/mg
  liver microsomal stability t1/2 (min), mouse: 4.8 min
Plasma stability, mouse
  plasma stability t1/2 (min), mouse: >480; >480 min
PBS solubility
  PBS solubility: <1.6 µM
[4]
  liver microsomal stability CLint (μL/min/mg), human: 357 µL/min/mg
  liver microsomal stability t1/2 (min), human: 3.9 min
[5]
  fraction unbound: < 0.001
